These results are taken from patent US10617680B2 (CELGENE QUANTICEL RESEARCH, INC., priority 2017, dated 2020).

Where only a bound is given, the exact number is not on record here.

One assay deals with CBP (Homo sapiens (Human), UniProt Q92793). Description: In vitro CBP inhibition (AlphaScreen, biotinylated H4-tetraacetyl peptide). The format is binding.
Sequence of CBP (Q92793 1081-1197): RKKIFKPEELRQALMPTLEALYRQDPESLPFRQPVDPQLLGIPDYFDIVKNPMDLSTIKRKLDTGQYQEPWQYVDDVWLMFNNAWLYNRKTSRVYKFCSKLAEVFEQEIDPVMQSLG
Settings: not given
Put shortly: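 His-tagged CBP expressed in E. coli (50 nM final) incubated with biotinylated H4K5/8/12/16(Ac) peptide (20 nM final) in 50 mM HEPES pH 7.3, 10 mM NaCl, 0.25 mM TCEP, 0.1% BSA, 0.005% Brij-35, 0.4% DMSO, 20 min at room temp.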
On the technique in general: In Alpha technology, singlet oxygen from a donor bead excites a nearby acceptor bead.
For orientation: IC50 means the midpoint of a concentration-inhibition curve. Take `Cn1cc(-c2cnn(Cc3ccccc3)c2)c(-c2ccccc2Cl)cc1=O` [Example 123, 5-(1-benzyl-1H-pyrazol-4-yl)-4-(2-chlorophenyl)-1-methyl-pyridin-2(1H)-one]: the IC50 lay within 500 to 5000 nM.

Still in this assay, the particulars now being: AlphaScreen, Table 29; read-out: CBP IC50.
With `CC(C)Oc1cc(=O)n(C)cc1-c1cnn([C@H](C)c2ccccc2)c1` [Example 45, (R)-4-isopropoxy-1-methyl-5-(1-(1-phenylethyl)-1H-pyrazol-4-yl) pyridin-2(1H)-one], the IC50 was under 500 nM.
On to `Cn1cc(-c2cnn(Cc3ccccc3)c2)c(SCC(=O)O)cc1=O` [Example 169, [5-(1-Benzyl-1H-pyrazol-4-yl)-1-methyl-2-oxo-1,2-dihydro-pyridin-4-ylsulfanyl]-acetic acid], for which the IC50 was under 500 nM.
Same read-out and setting: then `Cn1cc(-c2cnn(-c3cccc(C4CC4)c3C#N)c2)c(-c2ccn(CCO)c(=O)c2)cc1=O` [Example 390, 2-cyclopropyl-6-[4-[4-[1-(2-hydroxyethyl)-2-oxo-4-pyridyl]-1-methyl-6-oxo-3-pyridyl]pyrazol-1-yl]benzonitrile], with under 500 nM; and `Cc1cc(-c2cnn(C(C)c3ccccc3)c2C)cn(C)c1=O` (stereo not drawn) [Example 34, 1,3-dimethyl-5-(5-methyl-1-(1-phenylethyl)-1H-pyrazol-4-yl) pyridin-2(1H)-one], with under 500 nM.
Turning to `CC(C)c1ccc(-c2cc(=O)n(C)cc2-c2cnn(-c3cccc(F)c3C#N)c2)cn1` [Example 375, 2-fluoro-6-[4-[4-(6-isopropyl-3-pyridyl)-1-methyl-6-oxo-3-pyridyl]pyrazol-1-yl]benzonitrile], the IC50 was under 500 nM.
On the same count and under the same terms, the result for `Cn1cc(-c2cnn(-c3ccccc3C(=O)O)c2)c(-c2cccnc2)cc1=O` [Example 227, 2-[4-(1′-Methyl-6′-oxo-1′,6′-dihydro-[3,4′]bipyridinyl-3′-yl)-pyrazol-1-yl]-benzoic acid] reads under 500 nM; that for `Cn1cc(-c2cnn(-c3cccc(C4CC4)c3C#N)c2)c(-c2ccn(C3CC3)c(=O)c2)cc1=O` [Example 388, 2-cyclopropyl-6-(4-(1′-cyclopropyl-1-methyl-2′,6-dioxo-1,1′,2′,6-tetrahydro-[4,4′-bipyridin]-3-yl)-1H-pyrazol-1-yl)benzonitrile], under 500 nM; that for `COc1ccc(C#N)c(-n2cc(-c3cn(C)c(=O)cc3-c3ccc(=O)[nH]c3)cn2)c1` [Example 260, 4-Methoxy-2-[4-(1′-methyl-6,6′-dioxo-1,6,1′,6′-tetrahydro-[3,4′]bipyridinyl-3′-yl)-pyrazol-1-yl]-benzonitrile], under 500 nM.
As for `COc1ccc(-c2cc(=O)n(C)cc2-c2cnn(-c3ccccc3C#N)c2)cc1OC` [Example 243, 2-(4-(4-(3,4-dimethoxyphenyl)-1-methyl-6-oxo-1,6-dihydropyridin-3-yl)-1H-pyrazol-1-yl)benzonitrile], the IC50 was under 500 nM.
Same read-out and setting: the result for `Cc1cc(-c2cnn(-c3cc(Oc4ccccc4)ccc3C#N)c2)cn(C)c1=O` [Example 258, 2-[4-(1,5-Dimethyl-6-oxo-1,6-dihydro-pyridin-3-yl)-pyrazol-1-yl]-4-phenoxy-benzonitrile] reads under 500 nM; that for `COc1ccc(-c2cc(=O)n(C)cc2-c2cnn(-c3ccccc3-c3nnn[nH]3)c2)cc1` [Example 298, 4-(4-Methoxy-phenyl)-1-methyl-5-{1-[2-(1H-tetrazol-5-yl)-phenyl]-1H-pyrazol-4-yl}-1H-pyridin-2-one], under 500 nM; that for `Cn1ccc(-c2cc(=O)n(C)cc2-c2cnn(-c3ccccc3S(C)(=O)=O)c2)cc1=O` [Example 284, 5-[1-(2-Methanesulfonyl-phenyl)-1H-pyrazol-4-yl]-1,1′-dimethyl-1H,1′H-[4,4′]bipyridinyl-2,2′-dione], under 500 nM.
Turning to `Cn1cc(-c2cn[nH]c2)c(-c2ccccc2)cc1=O` [Example 133, 1-methyl-4-phenyl-5-(1H-pyrazol-4-yl)pyridin-2(1H)-one], the IC50 is under 500 nM.
For `CN(C)C(=O)Cn1cc(-c2cn(C)c(=O)cc2-c2ccccc2)cn1` [Example 135, N,N-dimethyl-2-(4-(1-methyl-6-oxo-4-phenyl-1,6-dihydropyridin-3-yl)-1H-pyrazol-1-yl)acetamide], the half-maximal inhibitory concentration (IC50) is under 500 nM.
As for `Cn1cc(-c2cn(C)c(=O)cc2-n2ccc(C(=O)O)c2)cn1` [Example 84, 1-(1-methyl-5-(1-methyl-1H-pyrazol-4-yl)-2-oxo-1,2-dihydro-pyridin-4-yl)-1H-pyrrole-3-carboxylic acid], the IC50 was under 500 nM.
On the same count and under the same terms, the result for `Cn1cc(-c2cnn(Cc3ccccc3C#N)c2)ccc1=O` [Example 3, 2-((4-(1-methyl-6-oxo-1,6-dihydropyridin-3-yl)-1H-pyrazol-1-yl)methyl)benzonitrile] reads 500 to 5000 nM.
On to `Cn1cc(-c2cn(C)c(=O)cc2-n2cccc2)cn1` [Example 83, 1-methyl-5-(1-methyl-1H-pyrazol-4-yl)-4-(1H-prrol-1-yl) pyridin-2(1H)-one], for which the IC50 was under 500 nM.
As for `CC(C)Oc1cc(=O)n(C)cc1-c1cnn([C@@H](C)c2ccccc2)c1` [Example 46, (S)-4-isopropoxy-1-methyl-5-(1-(1-phenylethyl)-1H-pyrazol-4-yl) pyridin-2(1H)-one], the IC50 was under 500 nM.
For the molecule `COc1cc(-c2cc(=O)n(C)cc2-c2cnn(-c3ccccc3Cl)c2)ccn1` [Example 317, 5-(1-(2-chlorophenyl)-1H-pyrazol-4-yl)-2′-methoxy-1-methyl-[4,4′-bipyridin]-2(1H)-one], the IC50 is under 500 nM.
On the same count and under the same terms, then `COc1ccc(-c2cc(=O)n(C)cc2-c2cnn(-c3ccccc3C(=O)NC#N)c2)cc1` [Example 290, N-cyano-2-(4-(4-(4-methoxyphenyl)-1-methyl-6-oxo-1,6-dihydropyridin-3-yl)-1H-pyrazol-1-yl)benzamide], with under 500 nM; and `CC(c1ccccc1)n1cc(-c2cn(C)c(=O)cc2-c2ccn(C)c(=O)c2)cn1` (stereo not drawn) [Example 310, 1,1′-dimethyl-5-(1-(1-phenylethyl)-1H-pyrazol-4-yl)-[4,4′-bipyridine]-2,2′(1H,1′H)-dione], with under 500 nM.
Still for that read-out and setting: then `CCNc1ncc(-c2cc(=O)n(C)cc2-c2cnn(-c3cccc(Cl)c3C#N)c2)cn1` [Example 325, 2-chloro-6-(4-(4-(2-(ethylamino)pyrimidin-5-yl)-1-methyl-6-oxo-1,6-dihydropyridin-3-yl)-1H-pyrazol-1-yl)benzonitrile], with under 500 nM; and `CC(c1ccccc1)n1cc(-c2cn(C)c(=O)c3c2CCC3)cn1` (stereo not drawn) [Example 33, 2-methyl-4-(1-(1-phenylethyl)-1H-pyrazol-4-yl)-2,5,6,7-tetrahydro-1H-cyclopenta[c]pyridin-1-one], with under 500 nM.
For `Cn1cc(-c2cnn(-c3cccc(F)c3C#N)c2)c(-c2ccc(OC(F)F)nc2)cc1=O` [Example 353, 2-(4-(6-(difluoromethoxy)-1′-methyl-6′-oxo-1′,6′-dihydro-[3,4′-bipyridin]-3′-yl)-1H-pyrazol-1-yl)-6-fluorobenzonitrile], the IC50 is under 500 nM.
The same measure, in the same setting: then `Cn1cc(-c2cnn(C3CCCCC3O)c2)c(-c2ccccc2)cc1=O` (stereo not drawn) [Example 321, 5-(1-(2-hydroxycyclohexyl)-1H-pyrazol-4-yl)-1-methyl-4-phenylpyridin-2(1H)-one], with under 500 nM; and `CCc1cc(-c2cnn(-c3ccccc3C(=O)O)c2)cn(C)c1=O` [Example 257, 2-[4-(5-Ethyl-1-methyl-6-oxo-1,6-dihydro-pyridin-3-yl)-pyrazol-1-yl]-benzoic acid], with 500 to 5000 nM.
